# ChEMBL document CHEMBL3885881, “DrugMatrix”
# Species on record: Rattus norvegicus
# Test: DrugMatrix - Regimen: Daily Repeat
# Assay type: toxicity, organism-based, Sprague-Dawley
# Parameters: regimen Daily Repeat, gender Male, age 6-8 weeks
# Conditions: in vivo, po, route oral GAVAGE, vehicle 100 % WATER; for BASOPHIL / EOSINOPHIL / ERYTHROCYTE COUNT / HEMATOCRIT / HEMOGLOBIN / LEUKOCYTE COUNT / LYMPHOCYTE / MEAN CORPUSCULAR HEMOGLOBIN / MEAN CORPUSCULAR HEMOGLOBIN CONCENTRATION / MEAN CORPUSCULAR VOLUME / MONOCYTE / NEUTROPHIL / PLATELET COUNT: tissue Blood; for ALANINE AMINOTRANSFERASE / ALBUMIN / ALKALINE PHOSPHATASE / ASPARTATE AMINOTRANSFERASE / BLOOD UREA NITROGEN / CHLORIDE / CHOLESTEROL / CREATINE PHOSPHOKINASE / CREATININE / GLUCOSE / PHOSPHORUS / POTASSIUM / SODIUM / TOTAL BILIRUBIN / TOTAL PROTEIN: tissue Plasma
# [1] = 0 mg/kg, 72 h, dose level Control, time 3 day
# [2] = 0 mg/kg, 120 h, dose level Control, time 5 day
# [3] = 4 mg/kg, 72 h, dose level Low, time 3 day
# [4] = 4 mg/kg, 120 h, dose level Low, time 5 day
smiles,measurement,setting,value
CCN(CC)CCOC(=O)C1(C2CCCCC2)CCCCC1 [DICYCLOMINE],BASOPHIL,[1],0%
same,EOSINOPHIL,[1],0.5%
same,ERYTHROCYTE COUNT,[1],5.8 x10E6/uL
same,HEMATOCRIT,[1],35.07%
same,HEMOGLOBIN,[1],14.12 G/DL
same,LEUKOCYTE COUNT,[1],13.7 x10E3/uL
same,LYMPHOCYTE,[1],82.33%
same,MEAN CORPUSCULAR HEMOGLOBIN,[1],24.38 pg
same,MEAN CORPUSCULAR HEMOGLOBIN CONCENTRATION,[1],40.28 G/DL
same,MEAN CORPUSCULAR VOLUME,[1],60.52 fL
same,MONOCYTE,[1],2.67%
same,NEUTROPHIL,[1],14.5%
same,PLATELET COUNT,[1],911.5 x10E3/uL
same,ALANINE AMINOTRANSFERASE,[1],36.83 u/L
same,ALBUMIN,[1],3.75 G/DL
same,ALKALINE PHOSPHATASE,[1],399.83 u/L
same,ASPARTATE AMINOTRANSFERASE,[1],66 u/L
same,BLOOD UREA NITROGEN,[1],14.67 mg/dL
same,CHLORIDE,[1],101.67 MEQ/L
same,CHOLESTEROL,[1],66.33 mg/dL
same,CREATINE PHOSPHOKINASE,[1],139.5 u/L
same,CREATININE,[1],0.92 mg/dL
same,GLUCOSE,[1],175 mg/dL
same,PHOSPHORUS,[1],11.42 mg/dL
same,POTASSIUM,[1],7.03 MEQ/L
same,SODIUM,[1],148.5 MEQ/L
same,TOTAL BILIRUBIN,[1],1.13 mg/dL
same,TOTAL PROTEIN,[1],6.87 G/DL
same,BASOPHIL,[2],0%
same,EOSINOPHIL,[2],0.2%
same,ERYTHROCYTE COUNT,[2],6.02 x10E6/uL
same,HEMATOCRIT,[2],36.48%
same,HEMOGLOBIN,[2],14.38 G/DL
same,LEUKOCYTE COUNT,[2],12.34 x10E3/uL
same,LYMPHOCYTE,[2],83%
same,MEAN CORPUSCULAR HEMOGLOBIN,[2],23.92 pg
same,MEAN CORPUSCULAR HEMOGLOBIN CONCENTRATION,[2],39.44 G/DL
same,MEAN CORPUSCULAR VOLUME,[2],60.66 fL
same,MONOCYTE,[2],3%
same,NEUTROPHIL,[2],13.8%
same,PLATELET COUNT,[2],1190.6 x10E3/uL
same,ALANINE AMINOTRANSFERASE,[2],43 u/L
same,ALBUMIN,[2],3.73 G/DL
same,ALKALINE PHOSPHATASE,[2],393 u/L
same,ASPARTATE AMINOTRANSFERASE,[2],62.33 u/L
same,BLOOD UREA NITROGEN,[2],16.33 mg/dL
same,CHLORIDE,[2],101.67 MEQ/L
same,CHOLESTEROL,[2],65.5 mg/dL
same,CREATINE PHOSPHOKINASE,[2],130.67 u/L
same,CREATININE,[2],0.58 mg/dL
same,GLUCOSE,[2],180.67 mg/dL
same,PHOSPHORUS,[2],11.28 mg/dL
same,POTASSIUM,[2],7.05 MEQ/L
same,SODIUM,[2],148.17 MEQ/L
same,TOTAL BILIRUBIN,[2],0.72 mg/dL
same,TOTAL PROTEIN,[2],6.83 G/DL
same,BASOPHIL,[3],0%
same,EOSINOPHIL,[3],0.33%
same,ERYTHROCYTE COUNT,[3],6.01 x10E6/uL
same,HEMATOCRIT,[3],36.27%
same,HEMOGLOBIN,[3],14.33 G/DL
same,LEUKOCYTE COUNT,[3],12.73 x10E3/uL
same,LYMPHOCYTE,[3],85.67%
same,MEAN CORPUSCULAR HEMOGLOBIN,[3],23.9 pg
same,MEAN CORPUSCULAR HEMOGLOBIN CONCENTRATION,[3],39.57 G/DL
same,MEAN CORPUSCULAR VOLUME,[3],60.4 fL
same,MONOCYTE,[3],2%
same,NEUTROPHIL,[3],12%
same,PLATELET COUNT,[3],1302.67 x10E3/uL
same,ALANINE AMINOTRANSFERASE,[3],37.67 u/L
same,ALBUMIN,[3],3.63 G/DL
same,ALKALINE PHOSPHATASE,[3],354.67 u/L
same,ASPARTATE AMINOTRANSFERASE,[3],62.33 u/L
same,BLOOD UREA NITROGEN,[3],14 mg/dL
same,CHLORIDE,[3],102.67 MEQ/L
same,CHOLESTEROL,[3],65.33 mg/dL
same,CREATINE PHOSPHOKINASE,[3],133.33 u/L
same,CREATININE,[3],0.63 mg/dL
same,GLUCOSE,[3],179.67 mg/dL
same,PHOSPHORUS,[3],11.7 mg/dL
same,POTASSIUM,[3],6.7 MEQ/L
same,SODIUM,[3],150.67 MEQ/L
same,TOTAL BILIRUBIN,[3],0.53 mg/dL
same,TOTAL PROTEIN,[3],6.6 G/DL
same,BASOPHIL,[4],0%
same,EOSINOPHIL,[4],0.33%
same,ERYTHROCYTE COUNT,[4],6.36 x10E6/uL
same,HEMATOCRIT,[4],39.27%
same,HEMOGLOBIN,[4],15.3 G/DL
same,LEUKOCYTE COUNT,[4],12.77 x10E3/uL
same,LYMPHOCYTE,[4],87.33%
same,MEAN CORPUSCULAR HEMOGLOBIN,[4],24.03 pg
same,MEAN CORPUSCULAR HEMOGLOBIN CONCENTRATION,[4],38.97 G/DL
same,MEAN CORPUSCULAR VOLUME,[4],61.73 fL
same,MONOCYTE,[4],2.67%
same,NEUTROPHIL,[4],9.67%
same,PLATELET COUNT,[4],1082 x10E3/uL
same,ALANINE AMINOTRANSFERASE,[4],45 u/L
same,ALBUMIN,[4],3.6 G/DL
same,ALKALINE PHOSPHATASE,[4],424.67 u/L
same,ASPARTATE AMINOTRANSFERASE,[4],67.67 u/L
same,BLOOD UREA NITROGEN,[4],15.67 mg/dL
same,CHLORIDE,[4],104.33 MEQ/L
same,CHOLESTEROL,[4],65 mg/dL
same,CREATINE PHOSPHOKINASE,[4],107.33 u/L
same,CREATININE,[4],0.6 mg/dL
same,GLUCOSE,[4],195 mg/dL
same,PHOSPHORUS,[4],12.53 mg/dL
same,POTASSIUM,[4],6.67 MEQ/L
same,SODIUM,[4],151 MEQ/L
same,TOTAL BILIRUBIN,[4],0.63 mg/dL
same,TOTAL PROTEIN,[4],6.53 G/DL
